From patent US20260055088A1, “HETEROCYCLIC COMPOUND, METHOD FOR PREPARING SAME, AND PHARMACEUTICAL USE THEREOF” (Jiangsu Hengrui Pharmaceuticals Co., Ltd., priority 2022, published 2026) come the findings set out here.

Structures are written as SMILES. pIC50: −log10 of the molar value. Where a name gives a salt, the structure may show the parent alone.

The assay addresses Nav1.8 ion channel stably expressed on HEK293 cells (Homo sapiens (Human), UniProt Q9Y5Y9). The assay can be described thus: Inhibitory activity against Nav1.8, manual patch clamp. It is filed as cell-based. To be noted: resting protocol (-80 mV to 10 mV), 1 μM TTX, read-out: IC50 for the inhibition of Nav1.8 channel activity. The text has this: The objective of the experiment was to investigate the effects of the compounds on the Nav1.8 ion channel in ex vivo experiments. The Nav1.8 ion channel is stably expressed on HEK293 cells. After the Nav1.8 current stabilized, the effects of the compounds on the Nav1.8 ion channel were obtained by comparing the magnitudes of the Nav1.8 currents before and after the compounds were applied.
• 1) A patch clamp amplifier: patch clamp PC-505B (WARNER instruments)/MultiClamp 700A (Axon instrument) • 2) A digital-to-analog converter: Digidata 1440A (Axon CNS)/Digidata 1550A (Axon instruments) • 3) A micromanipulator: MP-225 (SUTTER instrument) • 4) An inverted microscope: TL4 (Olympus) • 5) Glass micropipette puller: PC-10 (NARISHIGE) • 6) Microelectrode glass capillaries: B12024F (Wuhan VitalSense Scientific Instruments Co., Ltd.) • 7) Dimethyl sulfoxide (DMSO) D2650 (Sigma-Aldrich) • 8) TTX AF3014 (Affix Scientific)
The compounds for preparing the intracellular and extracellular fluids were purchased from Sigma (St. Louis, MO) except for the NaOH and KOH for the acid-base titrations. The extracellular fluid (mM) was: NaCl, 137; KCl, 4; CaCl2, 1.8; MgCl2, 1; HEPES, 10; glucose, 10; pH 7.4 (NaOH titration). The intracellular fluid (mM) was: aspartic acid, 140; MgCl2, 2; EGTA, 11; HEPES, 10; pH 7.2 (CsOH titration). All test and control compound solutions contained 1 μM TTX.
The test compounds were stored at a concentration of 9 mM in dimethyl sulfoxide (DMSO). On the testing day, the compounds were further dissolved in the extracellular fluid to prepare the required concentrations.
1) After the compounds were prepared into solutions with specified concentrations, the compound solutions were sequentially added to channels in ascending order according to their concentrations, and each channel was labeled.
2) A cell was transferred to the perfusion chamber. Positive pressure was applied inside the electrode, and the electrode tip was brought into contact with the cell. The three-way valve of the suction device was switched to the state where all three ways were open, and negative pressure was then applied to the electrode, allowing a high-resistance seal to form between the electrode and the cell. The application of negative pressure was continued to rupture the cell membrane, leading to the formation of a current pathway.
3) After the cell membrane rupture current stabilized, perfusion was performed with different concentrations in sequence. If the current remained stable for at least one minute, perfusion was performed with the next concentration.
4) The perfusion chamber was cleaned. The perfusion chamber was rinsed with the compound solutions in descending order according to their concentrations, with each concentration applied for 20 s. Finally, the perfusion chamber was rinsed with the extracellular fluid for 1 min.
The cell was clamped at −80 mV and then depolarized to 10 mV using a square wave lasting for 10 ms to obtain a Nav1.8 current. This procedure was repeated once every 5 seconds. The maximum current induced by the square wave was detected. After the current stabilized, perfusion was performed with the test compounds. After the reaction stabilized, the strength of the blocking was calculated.
The data were stored on a computer system and analyzed. Data acquisition and analysis were performed using pCLAMP 10 (Molecular Devices, Union City, CA), and the results were reviewed by a manager. “Current stabilized” means that the changes in current over time were within a limited range. The magnitude of the current after stabilization was used to calculate the effect of the compound at this […].
The inhibitory activity of the compounds of the present disclosure against Nav1.8 was determined through the above assay.

On to `COc1c([C@H]2[C@H](C(=O)Nc3ccnc(OC[C@H](O)CO)c3)O[C@@](C)(C(F)(F)F)[C@H]2C)ccc(F)c1F` [Example 2, (2R,3S,4S,5R)-3-(3,4-Difluoro-2-methoxyphenyl)-N-(2-((R)-2,3-dihydroxypropoxy)pyridin-4-yl)-4,5-dimethyl-5-(trifluoromethyl)tetrahydrofuran-2-carboxamide], for which the negative logarithm of the IC50 (pIC50) is 8.54.
For the compound `COc1c([C@H]2[C@H](C(=O)Nc3ccnc(C(C)(C)O)c3)O[C@@](C)(C(F)(F)F)[C@H]2C)ccc(F)c1F` [Example 3, (2R,3S,4S,5R)-3-(3,4-Difluoro-2-methoxyphenyl)-N-(2-(2-hydroxypropan-2-yl)pyridin-4-yl)-4,5-dimethyl-5-(trifluoromethyl)tetrahydrofuran-2-carboxamide], the negative-log IC50 (pIC50) was 8.58.
Take `CONC(=O)c1cc(NC(=O)[C@@H]2O[C@@](C)(C(F)(F)F)[C@@H](C)[C@H]2c2ccc(F)c(F)c2OC)ccn1` [Example 5, 4-((2R,3S,4S,5R)-3-(3,4-Difluoro-2-methoxyphenyl)-4,5-dimethyl-5-(trifluoromethyl)tetrahydrofuran-2-carboxamido)-N-methoxypicolinamide]: the pIC50 was 9.15.
For the compound `COc1c([C@H]2[C@H](C(=O)Nc3ccnc(C(N)CO)c3)O[C@@](C)(C(F)(F)F)[C@H]2C)ccc(F)c1F` (stereo partly drawn) [Example 6, (2R,3S,4S,5R)—N-(2-(1-Amino-2-hydroxyethyl)pyridin-4-yl)-3-(3,4-difluoro-2-methoxyphenyl)-4,5-dimethyl-5-(trifluoromethyl)tetrahydrofuran-2-carboxamide], the negative-log IC50 (pIC50) was 8.73.
Take `COc1c([C@H]2[C@H](C(=O)Nc3ccnc(NC(N)=O)c3)O[C@@](C)(C(F)(F)F)[C@H]2C)ccc(F)c1F` [Example 9, (2R,3S,4S,5R)-3-(3,4-Difluoro-2-methoxyphenyl)-4,5-dimethyl-5-(trifluoromethyl)-N-(2-ureidopyridin-4-yl)tetrahydrofuran-2-carboxamide]: the pIC50 is 8.49.
Regarding `COc1c([C@H]2[C@H](C(=O)Nc3ccnc(NC(C)=O)c3)O[C@@](C)(C(F)(F)F)[C@H]2C)ccc(F)c1F` [Example 11, (2R,3S,4S,5R)—N-(2-Acetamidopyridin-4-yl)-3-(3,4-difluoro-2-methoxyphenyl)-4,5-dimethyl-5-(trifluoromethyl)tetrahydrofuran-2-carboxamide], the negative-log IC50 (pIC50) was 8.81.
For `COc1c([C@H]2[C@H](C(=O)Nc3ccnc(C(=O)N4CCCN4)c3)O[C@@](C)(C(F)(F)F)[C@H]2C)ccc(F)c1F` [Example 14, (2R,3S,4S,5R)-3-(3,4-Difluoro-2-methoxyphenyl)-4,5-dimethyl-N-(2-(pyrazolidine-1-carbonyl)pyridin-4-yl)-5-(trifluoromethyl)tetrahydrofuran-2-carboxamide], the pIC50 was 8.67.
With `COc1c([C@H]2[C@H](C(=O)Nc3ccnc(C(=O)N4CCCO4)c3)O[C@@](C)(C(F)(F)F)[C@H]2C)ccc(F)c1F` [Example 15, (2R,3S,4S,5R)-3-(3,4-Difluoro-2-methoxyphenyl)-N-(2-(isoxazolidine-2-carbonyl)pyridin-4-yl)-4,5-dimethyl-5-(trifluoromethyl)tetrahydrofuran-2-carboxamide], the pIC50 was 8.75.
Consider `COc1c([C@H]2[C@H](C(=O)Nc3ccnc(C(=O)NOCC4CC4)c3)O[C@@](C)(C(F)(F)F)[C@H]2C)ccc(F)c1F` [Example 18, N-(Cyclopropylmethoxy)-4-((2R,3S,4S,5R)-3-(3,4-difluoro-2-methoxyphenyl)-4,5-dimethyl-5-(trifluoromethyl)tetrahydrofuran-2-carboxamido)picolinamide], for which the pIC50 is 8.72.
The same measure for `CNNC(=O)c1cc(NC(=O)[C@@H]2O[C@@](C)(C(F)(F)F)[C@@H](C)[C@H]2c2ccc(F)c(F)c2OC)ccn1` [Example 19, (2R,3S,4S,5R)-3-(3,4-Difluoro-2-methoxyphenyl)-4,5-dimethyl-N-(2-(2-methylhydrazine-1-carbonyl)pyridin-4-yl)-5-(trifluoromethyl)tetrahydrofuran-2-carboxamide]: 9.00; for `C/N=C(\N)c1cc(NC(=O)[C@@H]2O[C@@](C)(C(F)(F)F)[C@@H](C)[C@H]2c2ccc(F)c(F)c2OC)ccn1` [Example 21, (2R,3S,4S,5R)-3-(3,4-Difluoro-2-methoxyphenyl)-4,5-dimethyl-N-(2-((Z)—N′-methylcarbamimidoyl)pyridin-4-yl)-5-(trifluoromethyl)tetrahydrofuran-2-carboxamide]: 8.87.
The same measure for `CCNNC(=O)c1cc(NC(=O)[C@@H]2O[C@@](C)(C(F)(F)F)[C@@H](C)[C@H]2c2ccc(F)c(F)c2OC)ccn1` [Example 22, (2R,3S,4S,5R)-3-(3,4-Difluoro-2-methoxyphenyl)-N-(2-(2-ethylhydrazine-1-carbonyl)pyridin-4-yl)-4,5-dimethyl-5-(trifluoromethyl)tetrahydrofuran-2-carboxamide]: 9.17; for `COc1c([C@H]2[C@H](C(=O)Nc3ccnc(C(=O)NNC4CC4)c3)O[C@@](C)(C(F)(F)F)[C@H]2C)ccc(F)c1F` [Example 23, (2R,3S,4S,5R)—N-(2-(2-Cyclopropylhydrazine-1-carbonyl)pyridin-4-yl)-3-(3,4-difluoro-2-methoxyphenyl)-4,5-dimethyl-5-(trifluoromethyl)tetrahydrofuran-2-carboxamide]: 8.55; for `COc1c([C@H]2[C@H](C(=O)Nc3ccnc(C(=O)NN(C)C)c3)O[C@@](C)(C(F)(F)F)[C@H]2C)ccc(F)c1F` [Example 24, (2R,3S,4S,5R)-3-(3,4-Difluoro-2-methoxyphenyl)-N-(2-(2,2-dimethylhydrazine-1-carbonyl)pyridin-4-yl)-4,5-dimethyl-5-(trifluoromethyl)tetrahydrofuran-2-carboxamide]: 8.67.
Consider `COc1c([C@H]2[C@H](C(=O)Nc3ccnc(C(=O)C(N)=O)c3)O[C@@](C)(C(F)(F)F)[C@H]2C)ccc(F)c1F` [Example 26, (2R,3S,4S,5R)—N-(2-(2-Amino-2-oxoacetyl)pyridin-4-yl)-3-(3,4-difluoro-2-methoxyphenyl)-4,5-dimethyl-5-(trifluoromethyl)tetrahydrofuran-2-carboxamide trifluoroacetate], for which the pIC50 is 8.96.
For the compound `COc1c([C@H]2[C@H](C(=O)Nc3ccc(F)c(C(=N)N)c3)O[C@@](C)(C(F)(F)F)[C@H]2C)ccc(F)c1F` [Example 27, (2R,3S,4S,5R)—N-(3-Carbamimidoyl-4-fluorophenyl)-3-(3,4-difluoro-2-methoxyphenyl)-4,5-dimethyl-5-(trifluoromethyl)tetrahydrofuran-2-carboxamide], the pIC50 was > 9.80.
Consider `[2H]C([2H])([2H])O/N=C(\N)c1cc(NC(=O)[C@@H]2O[C@@](C)(C(F)(F)F)[C@@H](C)[C@H]2c2ccc(F)c(F)c2OC)ccn1` [Example 37, (2R,3S,4S,5R)-3-(3,4-Difluoro-2-methoxyphenyl)-N-(2-((Z)—(N′-methoxy-d3)carbamimidoyl)pyridin-4-yl)-4,5-dimethyl-5-(trifluoromethyl)tetrahydrofuran-2-carboxamide], for which the negative-log IC50 (pIC50) is 8.73.
As for `COc1c([C@H]2[C@H](C(=O)Nc3ccnc(OCC(O)C4(O)CC4)c3)O[C@@](C)(C(F)(F)F)[C@H]2C)ccc(F)c1F` (stereo partly drawn) [Example 39, (2R,3S,4S,5R)-3-(3,4-Difluoro-2-methoxyphenyl)-N-(2-(2-hydroxy-2-(1-hydroxycyclopropyl)ethoxy)pyridin-4-yl)-4,5-dimethyl-5-(trifluoromethyl)tetrahydrofuran-2-carboxamide], the negative-log IC50 (pIC50) was 8.57.
Take `CO/N=C(\N)c1cc(NC(=O)[C@@H]2O[C@@](C)(C(F)(F)F)[C@@H](C)[C@H]2c2ccc(F)c(F)c2OC)cc[n+]1[O-]` [Example 44, 4-((2R,3S,4S,5R)-3-(3,4-Difluoro-2-methoxyphenyl)-4,5-dimethyl-5-(trifluoromethyl)tetrahydrofuran-2-carboxamido)-2-((Z)—N′-methoxycarbamimidoyl)pyridine 1-oxide]: the negative logarithm of the IC50 (pIC50) is 9.28.
